Test results: patent US10034853B2, “PPAR α/γ dual agonist and its application” (Shanghai University of Traditional Chinese Medicine, priority 2013, dated 2018)
“Also recorded” adds a separate entry of the source. Like-named read-outs stand apart in the source and are kept apart here.

Key:
db/db mice = test: Blood glucose and glucose tolerance in db/db mice; format: in vivo; conditions: for reduction of fasting blood glucose compared with vehicle: after 6 days treatment, intragastric
Experimental: Mice were fasted 8 hours before subjected to a dose of 1 g glucose per kg body weight. Blood was taken from tail and measured at 0, 15, 30, 60 and 90 minutes. The data were expressed with means±SE, n=9 for each group.
The db/db mice with leptin receptor mutation begin to show the symptoms of obesity, hyperlipidemia, insulin resistance, hyperglycemia and others at 4 weeks. This is an ideal kind of mice model for obese diabetic mice.
The db/db mice were kept in polycarbonate cages under regulated temperature (22-23° C.) and controlled humidity (50%-60%) with 12-hour light/12-hour dark cycle. All the mice were allowed to adapt to the standard housing conditions. Mice and food were weighed regularly to investigate the changes in body weight and food intake.
During the experimental period, the eight-week old db/db mice were treated with water and a normal standard cylindrical diet. […] An intraperitoneal glucose tolerance test (IPGTT) was carried out after one week of treatment. Mice were fasted 8 hours before subjected to a dose of 1 g glucose per kg body weight. Blood was taken from tail at 0, 15, 30, 60, and 90 minutes. After 11 days of treatment, 0.75 U/kg body weight of insulin was injected intraperitoneally to perform intraperitoneal insulin tolerance test (IPITT). Blood was taken from tail at 0, 15, 30, 60, 90 and 120 minutes. After 20 days, all the db/db mice were anaesthetized by pentobarbital sodium after 8-hour fast. Blood and tissues were collected and stored at −80° C. for the further analysis.

[1] = test system: PPAR α/γ target genes in HepG2 cells; test: Real-time PCR of PPAR α/γ target genes in HepG2 cells; format: cell-based; conditions: 24 hours, 25 μM (stated for compound A); for expression of PPAR α/γ target genes (GLUT4, CD36, LPL, Fasn, ACO): β-actin reference
Experimental: Used Real-time fluorescence quantitative PCR (Real-time PCR) to detect how the compounds A, B and C regulate the expression of PPAR γ/α-related target genes in liver HepG2 cells.
HepG2 cells was grown in Dulbecco's modified Eagle's medium (DMEM, HyClone) with 10% fetal bovine serum (FBS, HyClone) and 1% Penicillin/Streptomycin (Gibco) at 37° C. and 5% CO2. HepG2 cells at logarithmic growth phase were plated in 12-well plates with the cell density was 5×10^4 cells/mL, and then were treated by compound A for 24 hours. Quantitative PCR analysis was performed using β-actin as an endogenous reference.
When the density of HepG2 cells was grown about 60%, compound A (dissolved in DMSO as a stock solution) diluted with complete medium was added into cells. The final concentration was 25 μM (μmol/L).
After 24 hours, total RNA of treated HepG2 cells was isolated using TRIzol reagent (Takara, Japan) according to the manual.
The total RNA was reversely transcribed to cDNA applying the reverse transcription kit (Thermo, Mass., USA). We established 20 μL reverse transcription reaction system according to Table 2. The reaction system was mixed and placed at room temperature (25° C.) for 5 minutes, incubated at 42° C. for 1 hour, incubated at 70° C. for 5 minutes. cDNA was stored at −20° C.
All primers were designed by the Prime 3.0 software. Briefly, after an initial denaturation at 95° C. for 10 minutes, the cDNA was amplified by 40 cycles of PCR (95° C., 15 seconds; 60° C., 60 seconds). All experiments were repeated at least three times independently.

PPAR α = molecular target: T1, PPAR α (Homo sapiens, UniProt Q07869); test: Dual-luciferase reporter gene assay, PPAR α transcriptional activity in 293T cells; format: cell-based; conditions: for EC50: 293T cells, luciferase reporter, 24 hours incubation; for transcription activity on PPAR α relative to compound A: 293T reporter assay
T1 construct: PPAR α-LBD plasmids; expressed in transfected cells; host or cells: 293T cells (ATCC)
T1 sequence (Q07869 239-466 limits assumed): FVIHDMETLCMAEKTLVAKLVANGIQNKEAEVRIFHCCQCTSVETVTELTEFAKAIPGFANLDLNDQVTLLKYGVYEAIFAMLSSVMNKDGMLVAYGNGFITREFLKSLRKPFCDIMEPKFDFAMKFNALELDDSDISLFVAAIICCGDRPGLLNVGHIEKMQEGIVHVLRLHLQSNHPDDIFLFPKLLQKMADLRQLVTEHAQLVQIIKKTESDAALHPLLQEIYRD
Experimental: The inventors used the PPAR-α, α-LBD, γ and γ-LBD plasmids to detect the impacts of bavachinin on transcription activities of these two PPAR subtype. […] The positive agonists or the test compounds were diluted in fresh media, and then added into the cells. After incubating for another 24 hours, the cells were harvested to detect luciferase activity.
(§1) pCMX-Gal-mPPAR γ LBD plasmids, Gal4 reporter vector MH100×4-TK-Luc recombinant plasmids and renilla luciferase internal reference plasmids; PPAR α-LBD plasmids; PPAR γ plasmids; PPAR α plasmids.
When the cells grew to a density of 50 to 80% after seeded in plate overnight, it's good to carry out the transfection.
The final concentration of positive agonists was 20 μmol/L).
(§2) After 24 hours, cells were washed twice with PBS to remove the remaining cell culture medium; 65 μL lysis buffer was added into each well and oscillated by the shaker for 15 minutes until cell lysis was complete. Finally the cell lysate was transferred into a 1.5 mL centrifuge tube; The cell lysate was centrifuged at 5000 rpm for 5 minutes and then 10 μL supernatant was taken to a new centrifuge tube for testing.
(§3) We conducted the luciferase reporter assay using Dual-Luciferase Reporter Assay System (Promega, USA). The transfection efficiency was normalized using the internal reference renilla luciferase activity. All transfection experiments were independently repeated for at least three times, with each experimental group having at least two deputy holes.
(§4) The Bio-Tek, Synergy HT multifunctional microplate reader was used to detect the fluorescence intensity of firefly and renilla. After normalizing via the internal reference renilla luciferase activity, the relative luciferase activity was expressed by the ratio of the fluorescence intensity of firefly luciferase and renilla luciferase.
(§5) Data were expressed as mean±standard error of mean (SEM). One-way ANOVA was used to analyze statistically differences between groups with LSD test for multiple comparisons using SPSS 16.0. The EC50 values were calculated using GraphPad Prism 5.0. A P value≤0.05 was regarded as statistically significant different.

[2] = test system: diet-induced obese (dio) C57BL/6J mice; test: Lipid disorders in diet-induced obese (dio) mice; conditions: for effect on food intake / reduction of serum triglyceride (TG) levels compared to HFD group / effect on body weight: 3-week treatment; for reduction of serum triglyceride (TG) levels compared to HFD group: compound A 2 g per kg HFD; for effect on body weight: vs HFD group
Experimental: For the therapy study, the six-week old female C57BL/6J mice were fed with high-fat diet (HFD, 60% of calories from fat) for 12 weeks to induce obesity and insulin resistance (DIO). The mice were divided into 3 groups according to body weight and fasting blood glucose (n=9, 7, 7, 7). […] After 21 days of dosing, we took blood from heart of anaesthetized fasted 10-hour mice. Tissues were collected and stored at −80° C.
Serum was used for all the analysis of blood parameters.

PPAR γ = molecular target: T2, PPAR γ (Mus musculus, UniProt P37238); test: Dual-luciferase reporter gene assay, PPAR γ transcriptional activity in 293T cells; format: cell-based; conditions: for transcription activity on PPAR γ relative to compound A: 293T reporter assay
T2 construct: pCMX-Gal-mPPAR γ LBD plasmids; expressed in transfected cells; host or cells: 293T cells (ATCC)
T2 sequence (P37238 238-503 limits assumed): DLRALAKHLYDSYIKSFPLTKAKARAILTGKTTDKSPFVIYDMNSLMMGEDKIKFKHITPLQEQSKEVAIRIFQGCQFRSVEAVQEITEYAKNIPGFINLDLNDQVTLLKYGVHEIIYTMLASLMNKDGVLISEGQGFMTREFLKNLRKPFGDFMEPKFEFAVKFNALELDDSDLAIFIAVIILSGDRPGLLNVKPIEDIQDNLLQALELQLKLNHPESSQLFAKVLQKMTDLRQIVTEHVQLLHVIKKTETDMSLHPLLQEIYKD
Experimental: Reporter gene assay was used to detect the impacts of the compounds A, B and C on the transcriptional activities of PPAR γ and PPAR α. The inventors used the PPAR-α, α-LBD, γ and γ-LBD plasmids to detect the impacts of bavachinin on transcription activities of these two PPAR subtype. All the transfections were added to 293T cells (ATCC) overnight and then removed. The positive agonists or the test compounds were diluted in fresh media, and then added into the cells. After incubating for another 24 hours, the cells were harvested to detect luciferase activity.
293T cells were cultured in Dulbecco's modified Eagle's medium (DMEM) with 10% fetal bovine serum and 1% Penicillin/Streptomycin anti-DMEM high glucose medium at 37° C. and 5% CO2. 293T cells in log phase were seeded into 48-well plate with the cell density of 1×10^5˜2×10^5 cells/mL.
as §1
When the cells grew to a density of 50 to 80% after seeded in plate overnight, it's good to carry out the transfection. All the transfections, which included 10 μg of total plasmids and 15 μL FuGENE-HD transfection reagent per mL of DMEM, were placed at room temperature for 15 minutes and then added to 293T cells (ATCC) overnight and then removed.
After incubating overnight, the compound A or B or C or positive PPAR γ/α agonists rosiglitazone (as the specific agonistic ligand of PPAR γ) or WY14643 (as the specific agonistic ligand of PPAR α) with different concentrations diluted by complete medium (2, 5, 10, 25, 50 μmol/L) were added into cells. The final concentration of positive agonists was 20 μmol/L).
as §2, §3, §4, §5

3T3-L1 cells = test: 3T3-L1 preadipocyte differentiation (oil red O staining); format: cell-based; conditions: for adipocyte differentiation activity relative to compound A: 25 μM vs compound A at 5 μM
Experimental: 3T3-L1 fibroblast cell line is widely used for adipocyte differentiation models. […] For adipocyte differentiation, 3T3-L1 cells were seeded into 12-well plate to full confluence for 2 days and then incubated with completed medium containing 10 μg/mL human insulin (Sigma-Aldrich), 1 μM dexamethasone (Sigma-Aldrich) and the test compounds at 37° C. and 7.5% CO2. After 2 days of induction, the medium was replaced with a maintenance medium (completed medium including 10 μg/mL insulin and the test compounds) for additional 2 days (Day 0-Day 2). Thereafter, the medium was refreshed with fresh medium with the test compounds for 4 days (Day 2-Day 6). The test compounds dissolved in dimethylsulfoxide (DMSO) was diluted by the completed medium (final DMSO concentration, 0.1%) at indicated concentration. rosiglitazone was used as a positive compound. The 3T3-L1 cells were washed with PBS twice, fixed with 10% formalin at room temperature for 10 minutes and then stained with oil red O (Sigma-Aldrich, St. Louis, Mo.) at 37° C. for 30 minutes. The pictures were taken using an Olympus microscope (Tokyo, Japan).

[3] = 100 mg/kg/d stated for compound A
[4] = 293T cells, luciferase reporter, 24 hours incubation, read-out: EC50 (μM) PPAR γ

Compound | reduction of fasting blood glucose compared with vehicle (db/db mice; [3]) | expression of PPAR α/γ themselves [1] | expression of PPAR α/γ target genes (GLUT4, CD36, LPL, Fasn, ACO) [1] | effect on food intake [2] | reduction of serum triglyceride (TG) levels compared to HFD group [2] | effect on body weight [2] | EC50 (PPAR α; read-out: EC50 (μM) PPAR α) | transcription activity on PPAR α relative to compound A (PPAR α) | EC50 (PPAR γ; [4]) | transcription activity on PPAR γ relative to compound A (PPAR γ) | adipocyte differentiation activity relative to compound A (3T3-L1 cells; 3T3-L1 cells) | further results
COc1cc2c(cc1CC=C(C)C)C(=O)C[C@@H](c1ccc(O)cc1)O2 [compound A, bavachinin] | about 20% | did not effect | significantly increased | without affecting; also recorded: did not affect | around 23% | without affecting; also recorded: did not increase |  |  |  |  |  | glucose tolerance (IPGTT) (db/db mice; 100 mg/kg/d, 1 g/kg glucose after 8 hours fast): improved; EC50 (PPAR α; EC50 (μM) PPAR α): 17.3 µM; PPAR α transactivation compared with full agonist WY14643 (PPAR α; WY14643 final concentration 20 μmol/L): more transactivation; serum TG levels in contrast to HFD group ([2]; FIG. 6D): significantly reduced; EC50 (PPAR γ): 8.6 µM; PPAR γ transactivation compared with rosiglitazone (ROS) (PPAR γ; compound at 25 μM vs rosiglitazone at 20 μM): nearly equal to PPAR γ agonist rosiglitazone (ROS) at 20 μM; 3T3-L1 adipocyte differentiation (3T3-L1 cells; 1 μM, with insulin and dexamethasone, 6 days, oil red O): induced 3T3-L1 cell differentiation and lipid droplets formation; 3T3-L1 adipocyte differentiation (3T3-L1 cells; 10 μM, with insulin and dexamethasone, 6 days, oil red O): almost fully differentiated; 3T3-L1 adipocyte differentiation (3T3-L1 cells; 25 μM, with insulin and dexamethasone (FIG. 5C)): induced to differentiate into adipocytes; potency on adipocyte differentiation relative to rosiglitazone (3T3-L1 cells; 3T3-L1 cells): as potent as rosiglitazone
CC(=O)Oc1ccc(C2CC(=O)c3cc(CC=C(C)C)c(OC(C)=O)cc3O2)cc1 (stereo not drawn) [compound B] | about 10% | did not effect | significantly increased | without affecting | 20% | without affecting | 28.5 µM | less than that of compound A | 18.8 µM | less than that of compound A | nearly equal to the activity of compound A at 5 μM | 
COc1cc2c(cc1CC=C(C)C)C(=O)CC(c1ccc(OC(C)=O)cc1)O2 (stereo not drawn) [compound C] | ~8% | did not effect | significantly increased | without affecting | 12% | without affecting | 12.9 µM | less than that of compound A | 12.3 µM | less than that of compound A | nearly equal to the activity of compound A at 5 μM | 
CN(CCOc1ccc(CC2SC(=O)NC2=O)cc1)c1ccccn1 (stereo not drawn) [rosiglitazone, reference compound] |  |  |  |  |  |  |  |  |  |  |  | reduction of fasting blood glucose compared with vehicle (db/db mice; rosiglitazone 5 mg/kg/d): 5%
